In patent US11279733B2, “Peptide antibiotics” (priority 2017, dated 2022):

System: bacterial strains
Assay: Potentiation/synergy antimicrobial assay (checkerboard, FICI) with antibiotics
Assay type: cell-based
Details: for MIC of antibiotic with 6442 at concn 0: 6442 0 μg/mL; for MIC of antibiotic with 6442 at concn 0.03: 6442 0.03 μg/mL; for MIC of antibiotic with 6442 at concn 0.0625: 6442 0.0625 μg/mL; for MIC of antibiotic with 8980 at conc 0: 8980 0 μg/mL; for MIC of antibiotic with 8980 at conc 1: 8980 1 μg/mL; for MIC of antibiotic with 8980 at conc 2: 8980 2 μg/mL; for MIC of antibiotic with 8980 at conc 4: 8980 4 μg/mL; for MIC of antibiotic with 8980 at conc 8: 8980 8 μg/mL; for MIC of antibiotic with 8981 at conc 0: 8981 0 μg/mL; for MIC of antibiotic with 8981 at conc 1: 8981 1 μg/mL; for MIC of antibiotic with 8981 at conc 2: 8981 2 μg/mL; for MIC of antibiotic with 8981 at conc 4: 8981 4 μg/mL; for MIC of antibiotic with 8981 at conc 8: 8981 8 μg/mL; for MIC of antibiotic with OctC4 at concn 0: OctC4 0 μg/mL; for MIC of antibiotic with OctC4 at concn 0.03: OctC4 0.03 μg/mL; for MIC of antibiotic with OctC4 at concn 0.0625: OctC4 0.0625 μg/mL; for MIC of antibiotic with OctC4 at concn 0.125: OctC4 0.125 μg/mL; for MIC of antibiotic with 6442 at concn 0.25: 6442 0.25 μg/mL
Procedure: Potentiation/synergy antimicrobial assays were conducted in the same manner as the standard MICs described above, with the following modifications. Assays were performed in 384-well non-binding surface plates (NBS; Corning 3460) and in Cation-adjusted Mueller Hinton Broth (CA-MHB; BD, Cat. No. 212322) with a final assay volume of 50 μL once bacteria was added at 5×10^5 CFU/mL. Antibiotics and octapeptin compounds were plated in duplicate as a 2-fold concentration series, in a matrix checkerboard format. The bacterial cell density of the resultant assay plates after 18-20 h incubation at 37° C. was read by optical density 600 nm (OD600) using a Tecan M1000 Pro Spectrophotometer, and analysed for ≥90% growth inhibition compared to the growth control to determine active concentrations. Synergistic effect was calculated based on the fractional inhibitory concentration index (FICI) by the following equation, where synergy is deemed FICI 0.5: […]

CN(C)c1ccc(O)c2c1C[C@H]1C[C@H]3[C@H](N(C)C)C(O)=C(C(N)=O)C(=O)[C@@]3(O)C(O)=C1C2=O [Minocycline, minocycline]
4 µg/mL: MIC of antibiotic with 8980 at conc 0 (GN_019 A. baumannii CARB) | MIC of antibiotic with 8981 at conc 0 (GN_019 A. baumannii CARB) | MIC of antibiotic with 6442 at concn 0.03 (GN_105 P. aeruginosa PmxR) | MIC of antibiotic with OctC4 at concn 0.0625 (GN_105 P. aeruginosa PmxR) | MIC of antibiotic with OctC4 at concn 0.125 (GN_105 P. aeruginosa PmxR) | MIC of antibiotic with 6442 at concn 0 (GN_181 E. coli mcr-1) | MIC of antibiotic with 6442 at concn 0.03 (GN_181 E. coli mcr-1) | MIC of antibiotic with 8980 at conc 0 (GN_181 E. coli mcr-1) | MIC of antibiotic with 8981 at conc 0 (GN_181 E. coli mcr-1) | MIC of antibiotic with OctC4 at concn 0 (GN_181 E. coli mcr-1) | MIC of antibiotic with OctC4 at concn 0.03 (GN_181 E. coli mcr-1)
32 µg/mL: MIC of antibiotic with 6442 at concn 0 (GN_045 K. pneumoniae NDM-1) | MIC of antibiotic with 6442 at concn 0.03 (GN_045 K. pneumoniae NDM-1) | MIC of antibiotic with 6442 at concn 0.0625 (GN_045 K. pneumoniae NDM-1) | MIC of antibiotic with 8980 at conc 0 (GN_045 K. pneumoniae NDM-1) | MIC of antibiotic with 8981 at conc 0 (GN_045 K. pneumoniae NDM-1) | MIC of antibiotic with OctC4 at concn 0 (GN_045 K. pneumoniae NDM-1) | MIC of antibiotic with OctC4 at concn 0.03 (GN_045 K. pneumoniae NDM-1) | MIC of antibiotic with OctC4 at concn 0.0625 (GN_045 K. pneumoniae NDM-1) | MIC of antibiotic with OctC4 at concn 0.125 (GN_045 K. pneumoniae NDM-1) | MIC of antibiotic with 6442 at concn 0 (GN_102 K. pneumoniae XDR/PmxR) | MIC of antibiotic with 8980 at conc 0 (GN_102 K. pneumoniae XDR/PmxR) | MIC of antibiotic with 8981 at conc 0 (GN_102 K. pneumoniae XDR/PmxR) | MIC of antibiotic with OctC4 at concn 0 (GN_102 K. pneumoniae XDR/PmxR) | MIC of antibiotic with OctC4 at concn 0.03 (GN_102 K. pneumoniae XDR/PmxR)
2 to 32 µg/mL: MIC of antibiotic with 8981 at conc 2 (GN_093 A. baumannii XDR/PmxR)
1 µg/mL: MIC of antibiotic with 8980 at conc 2 (GN_105 P. aeruginosa PmxR) | MIC of antibiotic with 8980 at conc 4 (GN_105 P. aeruginosa PmxR) | MIC of antibiotic with 6442 at concn 0.125 (GN_181 E. coli mcr-1, 6442 0.125 μg/mL)
1 to 2 µg/mL: MIC of antibiotic with 8980 at conc 1 (GN_181 E. coli mcr-1) | MIC of antibiotic with 8981 at conc 1 (GN_181 E. coli mcr-1) | MIC of antibiotic with 8981 at conc 2 (GN_181 E. coli mcr-1)
0.125 to 0.25 µg/mL: MIC of antibiotic with 8980 at conc 1 (GN_007 E. coli ESBL) | MIC of antibiotic with 8981 at conc 2 (GN_007 E. coli ESBL) | MIC of antibiotic with OctC4 at concn 0.0625 (GN_007 E. coli ESBL)
4 to 32 µg/mL: MIC of antibiotic with 8981 at conc 1 (GN_093 A. baumannii XDR/PmxR)
0.06 to 0.25 µg/mL: MIC of antibiotic with OctC4 at concn 0.25 (GN_181 E. coli mcr-1, OctC4 0.25 μg/mL)
0.125 µg/mL: MIC of antibiotic with 6442 at concn 0.0625 (GN_007 E. coli ESBL) | MIC of antibiotic with 8980 at conc 2 (GN_007 E. coli ESBL) | MIC of antibiotic with OctC4 at concn 0.125 (GN_007 E. coli ESBL)
0.5 to 2 µg/mL: MIC of antibiotic with 8980 at conc 2 (GN_181 E. coli mcr-1) | MIC of antibiotic with 8980 at conc 4 (GN_181 E. coli mcr-1) | MIC of antibiotic with 8980 at conc 8 (GN_181 E. coli mcr-1) | MIC of antibiotic with 8981 at conc 4 (GN_181 E. coli mcr-1) | MIC of antibiotic with 8981 at conc 8 (GN_181 E. coli mcr-1)
2 to 16 µg/mL: MIC of antibiotic with 8981 at conc 1 (GN_019 A. baumannii CARB) | MIC of antibiotic with 8981 at conc 2 (GN_019 A. baumannii CARB)
16 µg/mL: MIC of antibiotic with 6442 at concn 0.03 (GN_102 K. pneumoniae XDR/PmxR) | MIC of antibiotic with 6442 at concn 0.0625 (GN_102 K. pneumoniae XDR/PmxR) | MIC of antibiotic with OctC4 at concn 0.0625 (GN_102 K. pneumoniae XDR/PmxR) | MIC of antibiotic with OctC4 at concn 0.125 (GN_102 K. pneumoniae XDR/PmxR)
0.06 to 0.125 µg/mL: MIC of antibiotic with 8980 at conc 4 (GN_007 E. coli ESBL) | MIC of antibiotic with 8980 at conc 8 (GN_007 E. coli ESBL)
8 µg/mL: MIC of antibiotic with 8980 at conc 0 (GN_093 A. baumannii XDR/PmxR) | MIC of antibiotic with 8981 at conc 0 (GN_093 A. baumannii XDR/PmxR) | MIC of antibiotic with 6442 at concn 0 (GN_105 P. aeruginosa PmxR) | MIC of antibiotic with 8980 at conc 0 (GN_105 P. aeruginosa PmxR) | MIC of antibiotic with 8981 at conc 0 (GN_105 P. aeruginosa PmxR) | MIC of antibiotic with OctC4 at concn 0 (GN_105 P. aeruginosa PmxR) | MIC of antibiotic with OctC4 at concn 0.03 (GN_105 P. aeruginosa PmxR)
0.06 µg/mL: MIC of antibiotic with 6442 at concn 0.25 (GN_105 P. aeruginosa PmxR) | MIC of antibiotic with 6442 at concn 0.25 (GN_181 E. coli mcr-1)
0.03 to 0.125 µg/mL: MIC of antibiotic with 8981 at conc 4 (GN_007 E. coli ESBL) | MIC of antibiotic with 8981 at conc 8 (GN_007 E. coli ESBL)
0.25 µg/mL: MIC of antibiotic with 6442 at concn 0 (GN_007 E. coli ESBL) | MIC of antibiotic with 6442 at concn 0.03 (GN_007 E. coli ESBL) | MIC of antibiotic with 8980 at conc 0 (GN_007 E. coli ESBL) | MIC of antibiotic with 8981 at conc 0 (GN_007 E. coli ESBL) | MIC of antibiotic with 8981 at conc 1 (GN_007 E. coli ESBL) | MIC of antibiotic with OctC4 at concn 0 (GN_007 E. coli ESBL) | MIC of antibiotic with OctC4 at concn 0.03 (GN_007 E. coli ESBL)
2 to 4 µg/mL: MIC of antibiotic with 6442 at concn 0.0625 (GN_105 P. aeruginosa PmxR) | MIC of antibiotic with OctC4 at concn 0.0625 (GN_181 E. coli mcr-1)
